Tested on: major urinary protein (MUP)
Test: QCM ligand-binding test: shift of resonant frequency on binding of evaporated ligand to immobilized MUP
Design: species or system mouse
Conditions: MUP immobilized on 10 MHz AT-cut QCM chip; odorant sample evaporated at 50° C. and pumped into detection chamber
Description: The preferred electronic nose technology of the present invention is piezoelectric-based. Measurements are performed by detecting the binding of analytes (ligands) onto the sensing elements immobilized on piezoelectric materials, e.g., quartz crystal. The adsorption of ligand induces a shift in the oscillation frequency proportional to the mass of the encountered ligand. The operating performance of the present invention is described as bellow:
Gold electrodes of quartz crystal microbalance (QCM) surface are cleaned by immersing in 1.2 N NaOH and then in 1.2 N HCl. After rinsing and drying, the QCM electrodes are soaked in 1 mM 2-aminoethanethiol/DMSO solution for 12 hours and washed by double distilled water for 10 min. Then the QCM electrodes are dried in oven and dripped with 4 μl of 2.5% glutaldehyde for 1 hour. Two μl of 1% polyethylenimine/methanol (PEI/MeOH) solution are added onto activated surface of QCM in a closed chamber at room temperature for 12 hours. Finally, the QCM chips are washed two times and dried in oven.
Activated QCM chips are dipped in 2.5% glutaldehyde solution for 1 hour, and then MUP solution (20 μg/ml in 10 mM phosphate buffer, pH 7.4) are added and kept for 1 hour. Blocking the activated surface of QCM chips is performed by 100 mM glycine.
A sample is respectively applied in a syringe and kept in an oven at 50° C. An AT-cut QCM device with basic resonant frequency of 10 MHz is employed to determine the adsorption of odorant vapor. The evaporated odorant sample is pumped into the detection chamber of QCM and the shift of resonant frequency is recorded.
A variety of ligands are surveyed according to the above procedures. Table I lists the changes of signal in frequency upon the bindings of different ligands, including phenylacetate, propylbutyrate, hexylbutyrate, benzylbutyrate, propyltiglate, hexyltiglate, and benzyltiglate.

Row | SMILES | Change of Signal (in frequency f)
1 | CCCC(=O)OCc1ccccc1 [benzylbutyrate] | 43
2 | C/C=C(\C)C(=O)OCc1ccccc1 [benzyltiglate] | 43
3 | CCCCCCOC(=O)CCC [hexylbutyrate] | 23
4 | C/C=C(\C)C(=O)OCCCCCC [hexyltiglate] | 55
5 | CCCOC(=O)CCC [propylbutyrate] | 26
6 | C/C=C(\C)C(=O)OCCC [propyltiglate] | 29

— patent US20040197932A1, “Bio-vehicle, biosensor and biotransducer system” (priority 2003, published 2004)
